Data reported in patent US11104672B2, “Polymorphs” (Syngenta Participations AG, priority 2017, dated 2021).

Assay: Stability of polymorphs: stirring in dimethyl carbonate, crystals characterised by DSC and pXRD
Type: physicochemical
Conditions: stirred in 5 ml dimethyl carbonate for two days, crystals isolated, air dried
Procedure: Powder X-ray diffraction analysis of solid material was carried out using the Bruker D8 powder diffractometer at room temperature and at relative humidities above 40%. Samples were mounted in Perspex sample holders and the samples flattened. The sample holder was rotated and X-rays were collected from 4° to 34° 2-theta, with a scan time of 25 to 30 minutes depending on the pattern intensity.
DSC was carried out using a Mettler Toledo DSC1. A sample loading of around 5 mg was used and this was heated from 25° C. to 160° C. at a rate of 10° C./minute. The lid of the DSC crucible was pierced to allow the escape of any gas formed during the heating of the sample.
A sample of the polymorph designated Form A(c) was stirred in 5 ml dimethyl carbonate for two days. The crystals were isolated, air dried and characterised by DSC and pXRD.

For `CCN1OC[C@@H](NC(=O)c2ccc(C3=NO[C@@](c4cc(Cl)c(F)c(Cl)c4)(C(F)(F)F)C3)cc2C)C1=O` [Form A(c)], the “Polymorphic stability (solid form found after stirring)” value was “all of the Form A(c) had converted into Form (A)a”.
